Data as given in US20070156042A1, “Medical device system and method for tracking and visualizing a medical device system under MR guidance” (priority 2005, published 2007).

Experiment: Diffusion of a fluorescent probe in swollen gelatin gel by FRAP
Format: physicochemical
Conditions: coating thickness 60 μm, diffusion coefficient 9×10−12 m2s−1
Text: To assess the stability of DTPA[Gd(III)] in the gelatin coating, the diffusion of a fluorescence probe in gelatin was studied by the technique of fluorescence recovery after photobleaching (FRAP). The instrument and data analysis scheme are described in Kim, S. H. and Yu, H., J. Phys. Chem. 1992, 96, 4034, which is hereby fully incorporated by reference. Fluorescein was used as the fluorescence probe due, in part, to its molecular size being roughly the same as that of DTPA[Gd(III)]. The focus of the study was to examine the possible retardation effects of gelatin concentration and cross-link density on the diffusion, which was determined at room temperature, i.e., below the gel point of gelatin. The diffusion of fluorescein probe slows down with the increase of gelatin concentration. The diffusion coefficient decreases from 1.5×10−10 to 9×10−12 m2s−1 when the concentration of gelatin increases from 9% to 40%. […] Accordingly, the probe diffusion is more likely controlled by the concentration of gelatin rather than the cross-link density. On the other hand, the cross-link density may determine the swelling ratio of gelatin, i.e., the concentration of gelatin in aqueous solution. […]

- time to diffuse out of the gelatin coating: about 67 seconds
Compound: O=C(O)CN(CCN(CC(=O)O)CC(=O)O)CCN(CC(=O)O)CC(=O)O [DTPA, diethylenetriaminepentaacetic acid]
